Measurements: patent US12479823B2, “Compound for use in retinal diseases” (ZHUHAI UNITED LABORATORIES CO., LTD., priority 2018, dated 2025)
Read-outs that look alike come from different tables or passages of the source.

How the values were obtained:
[1] = In vitro aldehyde capture capacity test (complexing with nonanal, HPLC at 254 nm); conditions: for Area under the curve AUC / Slope (linear equation of percentage content of complexed products vs time): nonanal 1.0 eq, compound 1.0 eq, 20-23° C., 10-300 min, HPLC 254 nm; for Slope (linear equation of percentage content of complexed products vs time): in %/min
Description: Objective: dry eye disease is caused by inflammation in eyes, wherein the inflammation may produce aldehydes that will accelerate the inflammation symptoms and worsen the dry eye disease if not eliminated in time. In the experiment, a better compound was selected according to the complexing capacity of the drug and aldehydes in vivo by simulating the in vivo environment.
Procedures: Sulfobutyl-B-cyclodextrin (310 mg) was dissolved in a phosphate buffer (1.25 mL) to prepare a solution.
Nonanal (5.0 mg, 32 μmol, 1.0 eq) and triolein (300 mg) were added to a reaction flask at room temperature, after addition of the prepared solution described above, linoleic acid (300 mg) was added, and finally a dimethyl sulfoxide (0.15 ml) solution containing the compound (32 μmol, 1.0 eq) of the present disclosure was added; the reaction solution was reacted at 20-23° C.
The reaction solution was reacted under stirring for 10 min, 100 min, 200 min, and 300 min respectively, and sampled for high performance liquid chromatography after the solution was stratified after standing for 2 min.
Sampling method: 25 μl of an upper emulsified layer and 50 μl of a lower aqueous phase were sampled by a pipette, and samples were diluted with 1 mL of methanol.
The ultraviolet absorption of the nonanal was weak at 254 nm, so the nonanal had little overall effect on the content of complexed products. Therefore, the percentage contents of complexes at 254 nm under high performance liquid chromatography were compared to observe aldehyde capture and complexing capacities, as shown in FIG. 1 and Table 1:
Taking The compound 7 as an example, after 300 min of reaction, the analytical method for HPLC was XBRIGE 2.5 μm, 3.0*100 mm 5-80CD_XBEH_12 min_0.8.1 cm;
Retention time 6.689 min, 6.787 min, 6.966 min, and 7.102 min were absorption peaks of products complexed with monomolecular aldehyde;
Retention time 8.905 min, 9.010 min, and 9.075 min were absorption peaks of products complexed with bimolecular aldehyde.

[2] = Corneal and plasma drug concentration after eye drops in rats; format: in vivo; conditions: for entry into the cornea by eye drops: SD rats, result in words
Description: Objective: To Study the Ratio of Corneal to Plasma Drug Concentration After Eye Drops in Rats
Experimental Materials: Male SD Rats, 200-300 g, 7-9 weeks old, Shanghai Lingchang
Experimental procedures: The candidate compound was prepared as a clear solution, and administered to SD rats by eye drops. The vehicle for eye drops was 10% hydroxypropyl β-cyclodextrin aqueous solution, and the drug concentration in the eye drops was 5 mg/mL. Corneal and whole blood samples were collected at 1 and 4 hours, respectively. The corneal samples was homogenized in 15 mM phosphate buffer (PBS): MeoH (2:1, v: v) buffer, the whole blood samples were centrifuged at 3000 r for 10 min, and the supernatant plasma samples were separated. 20 μL of the plasma samples and homogenate samples were mixed with 400 μL of acetonitrile precipitated proteins containing an internal standard, respectively, and 2 μL of the supernatant was injected by centrifugation. The plasma concentrations were quantified by LC-MS/MS analysis; the drug concentrations in the cornea and plasma were measured respectively according to different time points, and the ratio of corneal/plasma concentrations was calculated.

CYP3A4 = biological target: T1, CYP3A4 (Homo sapiens, UniProt P08684); test: Inhibition of human liver microsomal cytochrome P450 CYP3A4; format: in vitro ADME; conditions: human liver microsomes, two probe substrates, NADPH
T1 construct: fused human liver microsomes were selected as a CYP450 enzyme source; from tissue; host or cells: pooled ("fused") human liver microsomes
Excerpt: (§1) Objective: To study the inhibitory effect of compounds on human liver microsomal cytochrome P450. Experimental procedures: In the study on inhibition of the compounds on the human liver microsomal cytochrome P450 (CYP1A2, CYP2C9, CYP2C19, CYP2D6 and CYP3A4), fused human liver microsomes were selected as a CYP450 enzyme source. […]

CYP2D6 = biological target: T2, CYP2D6 (Homo sapiens, UniProt P10635); test: Inhibition of human liver microsomal cytochrome P450 CYP2D6; format: in vitro ADME; conditions: human liver microsomes, probe substrate, NADPH
T2 construct: fused human liver microsomes were selected as a CYP450 enzyme source; from tissue; host or cells: pooled ("fused") human liver microsomes
Excerpt: as §1

CYP1A2 = biological target: T3, CYP1A2 (Homo sapiens, UniProt P05177); test: Inhibition of human liver microsomal cytochrome P450 CYP1A2; format: in vitro ADME; conditions: human liver microsomes, probe substrate, NADPH
T3 construct: fused human liver microsomes were selected as a CYP450 enzyme source; from tissue; host or cells: pooled ("fused") human liver microsomes
T3 sequence (P05177 1-516): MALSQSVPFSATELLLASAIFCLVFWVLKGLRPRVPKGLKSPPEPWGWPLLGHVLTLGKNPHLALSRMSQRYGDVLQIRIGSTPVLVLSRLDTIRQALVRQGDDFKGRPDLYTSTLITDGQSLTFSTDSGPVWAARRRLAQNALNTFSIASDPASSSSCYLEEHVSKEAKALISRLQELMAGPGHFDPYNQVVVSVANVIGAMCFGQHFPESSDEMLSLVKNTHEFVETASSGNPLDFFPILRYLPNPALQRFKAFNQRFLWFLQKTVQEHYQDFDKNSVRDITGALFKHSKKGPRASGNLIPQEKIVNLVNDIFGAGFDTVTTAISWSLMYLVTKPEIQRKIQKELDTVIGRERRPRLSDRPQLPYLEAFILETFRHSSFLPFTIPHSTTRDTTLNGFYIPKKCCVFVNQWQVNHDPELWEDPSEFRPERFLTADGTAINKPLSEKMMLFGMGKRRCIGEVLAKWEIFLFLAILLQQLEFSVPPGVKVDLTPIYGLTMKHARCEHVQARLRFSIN
Excerpt: as §1

CYP2C19 = biological target: T4, CYP2C19 (Homo sapiens, UniProt P33261); test: Inhibition of human liver microsomal cytochrome P450 CYP2C19; format: in vitro ADME; conditions: human liver microsomes, probe substrate, NADPH
T4 construct: fused human liver microsomes were selected as a CYP450 enzyme source; from tissue; host or cells: pooled ("fused") human liver microsomes
Excerpt: as §1

CYP2C9 = biological target: T5, CYP2C9 (Homo sapiens, UniProt P11712); test: Inhibition of human liver microsomal cytochrome P450 CYP2C9; format: in vitro ADME; conditions: human liver microsomes, probe substrate, NADPH
T5 construct: fused human liver microsomes were selected as a CYP450 enzyme source; from tissue; host or cells: pooled ("fused") human liver microsomes
Excerpt: as §1

T5 sequence (P11712 whole entry, the tested form may be a part): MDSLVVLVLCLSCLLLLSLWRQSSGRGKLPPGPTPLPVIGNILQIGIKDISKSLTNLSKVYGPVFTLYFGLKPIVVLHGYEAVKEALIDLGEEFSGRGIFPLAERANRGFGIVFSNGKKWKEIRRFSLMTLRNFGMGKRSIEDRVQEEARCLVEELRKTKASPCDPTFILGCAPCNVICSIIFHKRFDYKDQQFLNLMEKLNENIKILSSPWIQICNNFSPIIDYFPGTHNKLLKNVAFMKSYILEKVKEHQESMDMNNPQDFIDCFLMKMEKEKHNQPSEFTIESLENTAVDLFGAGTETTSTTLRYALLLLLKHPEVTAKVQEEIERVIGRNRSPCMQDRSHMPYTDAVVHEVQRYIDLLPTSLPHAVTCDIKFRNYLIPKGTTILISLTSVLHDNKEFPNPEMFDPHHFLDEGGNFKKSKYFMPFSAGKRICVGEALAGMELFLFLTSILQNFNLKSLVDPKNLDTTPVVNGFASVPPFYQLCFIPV
T2 sequence (P10635 whole entry, the tested form may be a part): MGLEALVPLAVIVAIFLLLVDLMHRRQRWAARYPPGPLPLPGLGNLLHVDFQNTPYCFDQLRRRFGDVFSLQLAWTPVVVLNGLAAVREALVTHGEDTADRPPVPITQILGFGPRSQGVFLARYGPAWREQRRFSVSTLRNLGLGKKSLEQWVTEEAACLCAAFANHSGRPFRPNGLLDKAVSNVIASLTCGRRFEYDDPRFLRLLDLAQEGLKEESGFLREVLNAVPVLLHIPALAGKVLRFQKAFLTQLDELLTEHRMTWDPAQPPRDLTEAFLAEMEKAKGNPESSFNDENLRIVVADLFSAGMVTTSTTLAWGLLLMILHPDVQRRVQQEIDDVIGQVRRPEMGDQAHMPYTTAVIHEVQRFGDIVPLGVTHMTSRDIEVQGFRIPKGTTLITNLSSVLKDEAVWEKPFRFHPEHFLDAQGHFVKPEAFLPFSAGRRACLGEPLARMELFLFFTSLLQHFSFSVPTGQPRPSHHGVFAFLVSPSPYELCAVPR
T1 sequence (P08684 whole entry, the tested form may be a part): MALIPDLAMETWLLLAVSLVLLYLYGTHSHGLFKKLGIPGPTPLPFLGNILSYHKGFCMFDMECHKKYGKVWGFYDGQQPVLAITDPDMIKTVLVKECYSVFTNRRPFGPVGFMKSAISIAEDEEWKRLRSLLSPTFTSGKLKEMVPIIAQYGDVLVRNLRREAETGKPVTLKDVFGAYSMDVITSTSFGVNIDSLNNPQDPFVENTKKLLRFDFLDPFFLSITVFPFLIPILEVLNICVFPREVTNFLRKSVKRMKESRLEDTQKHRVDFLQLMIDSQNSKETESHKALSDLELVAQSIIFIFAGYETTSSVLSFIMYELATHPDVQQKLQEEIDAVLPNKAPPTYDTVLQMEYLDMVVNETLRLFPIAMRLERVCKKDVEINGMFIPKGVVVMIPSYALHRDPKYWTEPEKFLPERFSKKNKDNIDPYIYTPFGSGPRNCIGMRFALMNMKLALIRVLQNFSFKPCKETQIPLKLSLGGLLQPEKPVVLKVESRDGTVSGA
T4 sequence (P33261 whole entry, the tested form may be a part): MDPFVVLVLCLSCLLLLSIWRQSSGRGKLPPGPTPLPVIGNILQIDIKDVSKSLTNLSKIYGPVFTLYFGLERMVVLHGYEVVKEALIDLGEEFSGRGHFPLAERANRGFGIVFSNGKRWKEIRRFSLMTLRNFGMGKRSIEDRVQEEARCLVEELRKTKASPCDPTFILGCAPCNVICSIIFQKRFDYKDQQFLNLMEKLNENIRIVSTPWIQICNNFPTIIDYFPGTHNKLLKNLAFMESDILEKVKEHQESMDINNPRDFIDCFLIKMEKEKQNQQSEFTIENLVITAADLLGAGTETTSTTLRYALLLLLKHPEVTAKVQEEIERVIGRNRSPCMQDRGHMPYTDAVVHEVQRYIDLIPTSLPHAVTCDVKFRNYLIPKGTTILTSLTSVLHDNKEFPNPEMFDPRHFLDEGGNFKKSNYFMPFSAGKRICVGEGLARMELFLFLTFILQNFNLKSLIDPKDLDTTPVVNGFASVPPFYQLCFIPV

SMILES	percentage content of complexed products at 254 nm ([1]; Time 10 min)	percentage content of complexed products at 254 nm ([1]; Time 100 min)	percentage content of complexed products at 254 nm ([1]; Time 200 min)	percentage content of complexed products at 254 nm ([1]; Time 300 min)	Area under the curve AUC [1]	Slope (linear equation of percentage content of complexed products vs time) [1]	entry into the cornea by eye drops [2]	IC50 (CYP3A4)	IC50 (CYP2D6)	IC50 (CYP1A2)	IC50 (CYP2C19)	concentration at 1 h ([2]; male, Sprague-Dawley (SD), rat, cornea, topical, eye drops 5 mg/mL, 1 h, read-out: Corneal Concentration)	concentration at 4 h ([2]; male, Sprague-Dawley (SD), rat, cornea, topical, eye drops 5 mg/mL, 4 h, read-out: Corneal Concentration)	Kp at 1 h ([2]; male, Sprague-Dawley (SD), rat, cornea/plasma, topical, eye drops 5 mg/mL, 1 h, read-out: Corneal Concentration/Plasma Concentration C/P ratio)	Kp at 4 h ([2]; male, Sprague-Dawley (SD), rat, cornea/plasma, topical, eye drops 5 mg/mL, 4 h, read-out: Corneal Concentration/Plasma Concentration C/P ratio)	concentration at 1 h ([2]; male, Sprague-Dawley (SD), rat, plasma, topical, eye drops 5 mg/mL, 1 h, read-out: Plasma Concentration)	concentration at 4 h ([2]; male, Sprague-Dawley (SD), rat, plasma, topical, eye drops 5 mg/mL, 4 h, read-out: Plasma Concentration)	IC50 (CYP2C9)
CC(C)(O)c1cc(F)c(Oc2ccc(N)c(C(C)(C)O)n2)cc1N [Compound 6]	9.738%	27.850%	37.847%	41.686%	8953 min. Conversion	0.1083												
CC(C)(O)c1cc(F)c(-c2cnc(C(C)(C)O)c(N)c2)cc1N [Compound 7]	6.634%	20.013%	29.424%	36.039%	6944 min. Conversion	0.1002	could enter the cornea by eye drops											
CC(C)(O)c1ccc(-n2cc(C(C)(C)O)c(N)cc2=O)cc1N [Compound 9]	12.268%	31.427%	43.086%	48.761%	10284 min. Conversion	0.1241												
CC(C)(O)c1ncc(-c2cnc(C(C)(C)O)c(N)c2)cc1N [Compound 4]	1.475%	7.663%	13.353%	18.636%	3061 min. Conversion	0.0589												
CC(C)(O)c1cc(Cl)c(-c2cnc(C(C)(C)O)c(N)c2)cc1N [Compound 8]	4.117%	12.121%	15.49%	19.873%	3879 min. Conversion	0.0519	could enter the cornea by eye drops	> 50 µM	> 50 µM	> 50 µM	> 50 µM	1660 nM	167 nM	12	3.72	148 nM	36.4 nM	> 50 µM
CC(C)(O)c1nc(-c2ccc(N)c(C(C)(C)O)n2)ccc1N [Compound 1]	0.917%	4.909%	4.383%	6.224%	1257 min. Conversion	0.0157												
CC(C)(O)c1nc(Oc2ccc(N)c(C(C)(C)O)n2)ccc1N [Compound 2]	2.658%	4.097%	4.721%	5.796%	1271 min. Conversion	0.0103												
